Test [1] deals with T1, Muscarinic acetylcholine receptor M5 (Homo sapiens, UniProt P08912).
T1 sequence (P08912 whole entry): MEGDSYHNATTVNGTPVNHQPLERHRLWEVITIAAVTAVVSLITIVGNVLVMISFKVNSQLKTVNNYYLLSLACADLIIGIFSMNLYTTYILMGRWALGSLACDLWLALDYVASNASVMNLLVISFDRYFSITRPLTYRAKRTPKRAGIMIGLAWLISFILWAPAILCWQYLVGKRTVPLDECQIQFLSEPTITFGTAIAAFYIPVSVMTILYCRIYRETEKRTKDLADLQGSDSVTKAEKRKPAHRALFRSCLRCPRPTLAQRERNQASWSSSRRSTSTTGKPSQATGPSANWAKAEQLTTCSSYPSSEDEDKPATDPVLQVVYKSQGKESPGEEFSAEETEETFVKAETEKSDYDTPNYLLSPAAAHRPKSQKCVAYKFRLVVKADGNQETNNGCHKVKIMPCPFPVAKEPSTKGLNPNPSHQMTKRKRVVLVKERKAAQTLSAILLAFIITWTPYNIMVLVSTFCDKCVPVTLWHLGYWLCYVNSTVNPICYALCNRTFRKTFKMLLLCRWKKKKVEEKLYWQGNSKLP
Description: Agonist activity at human muscarinic M5 receptor expressed in CHO cells.

The target in test [2] is T2, Muscarinic acetylcholine receptor M2 (Homo sapiens, UniProt P08172).
T2 sequence (P08172 whole entry): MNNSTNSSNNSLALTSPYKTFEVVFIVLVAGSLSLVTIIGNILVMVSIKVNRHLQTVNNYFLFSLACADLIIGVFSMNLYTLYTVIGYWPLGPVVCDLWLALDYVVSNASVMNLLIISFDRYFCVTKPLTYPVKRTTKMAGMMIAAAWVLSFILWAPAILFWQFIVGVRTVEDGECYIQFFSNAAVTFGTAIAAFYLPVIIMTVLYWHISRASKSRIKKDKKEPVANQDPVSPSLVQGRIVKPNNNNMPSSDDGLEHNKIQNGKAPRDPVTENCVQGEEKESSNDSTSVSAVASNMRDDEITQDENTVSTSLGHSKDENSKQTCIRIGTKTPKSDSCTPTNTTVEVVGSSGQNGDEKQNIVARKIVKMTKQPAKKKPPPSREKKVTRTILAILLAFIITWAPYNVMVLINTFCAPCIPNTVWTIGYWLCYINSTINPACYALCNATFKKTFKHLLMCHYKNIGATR
Description: Agonist activity at human muscarinic M2 receptor expressed in CHO cells.

Structures are written as SMILES.

With `CC1COCC(C[N+](C)(C)C)O1` (centres undefined), it took 7.94 µM to reach a half-maximal effect in test [1] (EC50).

The molecule `C[C@@H]1COC[C@H](C[N+](C)(C)C)O1` showed an EC50 in test [2] of 15.4 µM.

As for `C[C@H]1COC[C@@H](C[N+](C)(C)C)O1`, the EC50 in test [2] was 37.1 µM; in test [1], 3.71 µM.

These data come from BindingDB's records for doi:10.1016/j.bmc.2006.10.040 (University of Camerino, 2007).
